According to patent US20220048896A1, “PYRAZOLE COMPOUNDS SUBSTITUTED WITH HETEROARYL AND PHARMACEUTICAL USE THEREOF” (Japan Tobacco Inc., priority 2018, published 2022):

Experiments:
Assay type in all cases: cell-based
[1] = system: Salmonella typhimurium TA98; experiment: Ames test (reverse mutation test), strain TA98; details: for potential to induce reverse mutations, TA98: in the presence of S9 mix
Method: (§1) Metabolites 1 to 3 and Metabolites A to E were each tested herein. The purpose of this test is to evaluate the potential of each metabolite to induce reverse mutations in the standard strains of Salmonella typhimurium (TA98, TA1537, TA100, and TA1535) and Escherichia coli (WP2uvrA), in either the presence or absence of a rat liver metabolic activation system (S9 mix).
(§2) The solvent used herein was dimethyl sulfoxide (DMSO, 100 μL/plate).
(§3) The test was performed by the pre-incubation method with or without S9 mix. When the test was performed without S9 mix, sodium phosphate buffer solution (pH 7.4) was added.
(§4) 0.5 mL of S9 mix or 0.5 mL of 0.1 mol/L sodium phosphate buffer solution (pH 7.4), and 0.1 mL of the bacterial culture solution were added to a test tube containing 0.1 mL of the negative control formulation (DMSO alone), the metabolite, or the positive control formulation. The mixtures were pre-incubated at 37° C. for 20 minutes while shaking. After the pre-incubation period, 2 mL of top agar were added and the mixtures were vortex-mixed and seeded onto plates. Two plates per treatment were used. Each plate was incubated at 37±1° C. for 48 hours or more and the revertant colonies were counted. The mean number of revertant colonies for each treatment plate was then calculated. The presence or absence of growth inhibition due to any antibacterial effect of the test article and precipitation of the test article was observed grossly or under a stereomicroscope. […] Evaluation was based on mean values with no statistical comparisons being used.

[2] = system: Salmonella typhimurium TA1537; experiment: Ames test (reverse mutation test), strain TA1537
Method: as §1, §2, §3, §4

[3] = system: Salmonella typhimurium TA100; experiment: Ames test (reverse mutation test), strain TA100; details: in the presence of S9 mix
Method: as §1, §2, §3, §4

[4] = system: Salmonella typhimurium TA1535; experiment: Ames test (reverse mutation test), strain TA1535
Method: as §1, §2, §3
(§5) 0.5 mL of S9 mix or 0.5 mL of 0.1 mol/L sodium phosphate buffer solution (pH 7.4), and 0.1 mL of the bacterial culture solution were added to a test tube containing 0.1 mL of the negative control formulation (DMSO alone), the metabolite, or the positive control formulation. The mixtures were pre-incubated at 37° C. for 20 minutes while shaking. After the pre-incubation period, 2 mL of top agar were added and the mixtures were vortex-mixed and seeded onto plates. Two plates per treatment were used. Each plate was incubated at 37±1° C. for 48 hours or more and the revertant colonies were counted. The mean number of revertant colonies for each treatment plate was then calculated. […]

Escherichia coli WP2uvrA = experiment: Ames test (reverse mutation test), strain WP2uvrA; details: in the absence of S9 mix
Method: as §1, §2, §3, §5

Compound	Number of revertant colonies TA98 ([1]; S9 mix +, 6.9 μg/plate)	Number of revertant colonies TA98 ([1]; S9 mix +, 21 μg/plate)	Number of revertant colonies TA98 ([1]; S9 mix +, 62 μg/plate)	Number of revertant colonies TA98 ([1]; S9 mix +, 185 μg/plate)	Number of revertant colonies TA98 ([1]; S9 mix +, 556 μg/plate)	Number of revertant colonies TA98 ([1]; S9 mix +, 1667 μg/plate)	Number of revertant colonies TA98 ([1]; S9 mix +, 5000 μg/plate)	Number of revertant colonies TA98 ([1]; S9 mix −, 6.9 μg/plate)	Number of revertant colonies TA98 ([1]; S9 mix −, 21 μg/plate)	Number of revertant colonies TA98 ([1]; S9 mix −, 62 μg/plate)	Number of revertant colonies TA98 ([1]; S9 mix −, 185 μg/plate)	Number of revertant colonies TA98 ([1]; S9 mix −, 556 μg/plate)	Number of revertant colonies TA98 ([1]; S9 mix −, 1667 μg/plate)	Number of revertant colonies TA98 ([1]; S9 mix −, 5000 μg/plate)	potential to induce reverse mutations, TA98 [1]	potential to induce reverse mutations, TA1537 ([2]; in the presence of S9 mix)	potential to induce reverse mutations, TA100 [3]	also measured
CC(C)(Oc1cc(F)cc(-c2cc(N)nn2-c2cnc(C(F)(F)F)nc2)c1)C(F)(F)F [Metabolite 1]	37	39	40	40	34	27	21	32	32	31	29	30	15	7				
Nc1cc(-c2cc(F)cc(OC(F)(F)F)c2)n(-c2cncc(F)c2)n1 [Metabolite 2]	35	37	35	36	22	20	16	30	30	28	28	12	9	7				
Nc1cc(-c2cc(F)cc(OC(F)(F)F)c2)n(-c2cncc(C(F)(F)F)c2)n1 [Metabolite 3]	36	38	38	33	27	25	17	29	28	29	26	24	18	14				
CC(C)(OCc1cc(F)cc(-c2cc(N)nn2-c2ccc(F)cc2)c1)C(F)(F)F [Metabolite A, reference compound]															had potential to induce reverse mutations	had potential to induce reverse mutations		
Nc1cc(-c2cccc(OCC(F)(F)F)c2)n(-c2ccc(F)cc2)n1 [Metabolite B]															had potential to induce reverse mutations	had potential to induce reverse mutations	had potential to induce reverse mutations	potential to induce reverse mutations, TA1537 ([2]; in the absence of S9 mix): had potential to induce reverse mutations; potential to induce reverse mutations, TA1535 ([4]; in the presence of S9 mix): had potential to induce reverse mutations
Cc1ccc(-n2nc(N)cc2-c2cccc(OCC(F)(F)F)c2)cc1 [Metabolite C]															had potential to induce reverse mutations	had potential to induce reverse mutations	had potential to induce reverse mutations	potential to induce reverse mutations, WP2uvrA (Escherichia coli WP2uvrA): had potential to induce reverse mutations
Nc1cc(-c2cccc(OC(F)(F)F)c2)n(-c2cccc(F)c2)n1 [Metabolite D]																	had potential to induce reverse mutations	potential to induce reverse mutations, TA1535 ([4]; in the absence of S9 mix): had potential to induce reverse mutations
Cc1cccc(-n2nc(N)cc2-c2cccc(OC(F)(F)F)c2)c1 [Metabolite E]															had potential to induce reverse mutations	had potential to induce reverse mutations	had potential to induce reverse mutations	
